This is an account of results in patent US11208412B2 (DAEGU-GYEONGBUK MEDICAL INNOVATION FOUNDATION, priority 2017, dated 2021).

Assay in all cases: Kinase selectivity, DiscoverX scanMAX Kinase assay panel (% control)
Common to all, as to type: binding

Assay [1] deals with T1, kinases of the scanMAX Kinase assay panel (Homo sapiens, UniProt P36888, D835V).
T1 construct: purchased DiscoverX Co. (contract measurement) scanMAX Kinase assay panel
T1 sequence (P36888 27-993 D835V): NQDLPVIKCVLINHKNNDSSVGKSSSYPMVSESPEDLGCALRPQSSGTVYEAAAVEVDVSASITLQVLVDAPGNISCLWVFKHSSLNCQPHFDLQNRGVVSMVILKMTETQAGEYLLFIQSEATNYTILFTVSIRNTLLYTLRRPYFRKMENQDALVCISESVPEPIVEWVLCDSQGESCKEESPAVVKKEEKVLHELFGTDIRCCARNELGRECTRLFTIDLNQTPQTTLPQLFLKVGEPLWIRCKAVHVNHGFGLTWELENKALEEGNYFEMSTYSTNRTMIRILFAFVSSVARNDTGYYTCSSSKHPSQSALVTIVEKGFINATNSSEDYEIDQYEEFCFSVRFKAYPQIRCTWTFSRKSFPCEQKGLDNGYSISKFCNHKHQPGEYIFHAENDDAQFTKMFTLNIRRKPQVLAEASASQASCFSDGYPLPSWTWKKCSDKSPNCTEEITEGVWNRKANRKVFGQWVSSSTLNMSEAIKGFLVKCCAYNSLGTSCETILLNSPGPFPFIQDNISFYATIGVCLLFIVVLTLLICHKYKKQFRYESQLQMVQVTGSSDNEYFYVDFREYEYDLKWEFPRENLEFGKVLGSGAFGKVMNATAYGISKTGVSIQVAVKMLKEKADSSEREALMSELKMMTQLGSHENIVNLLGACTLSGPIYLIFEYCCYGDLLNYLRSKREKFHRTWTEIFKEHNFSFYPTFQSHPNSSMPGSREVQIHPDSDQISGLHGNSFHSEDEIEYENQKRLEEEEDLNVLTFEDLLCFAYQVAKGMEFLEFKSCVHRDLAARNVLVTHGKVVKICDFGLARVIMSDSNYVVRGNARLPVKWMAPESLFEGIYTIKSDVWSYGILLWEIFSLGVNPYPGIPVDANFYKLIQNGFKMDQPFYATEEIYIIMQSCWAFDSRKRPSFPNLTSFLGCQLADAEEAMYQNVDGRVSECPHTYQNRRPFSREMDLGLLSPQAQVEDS
Conditions: FLT3(D835V); 1 uM. An outline of the steps: (§1)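 Binding-panel profiling at one concentration, 1 uM in DMSO; values are % of DMSO control after subtracting the positive-control floor. Less than 35% means activity on that kinase.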

For assay [2], the target named is T2, kinases of the scanMAX Kinase assay panel (Homo sapiens, UniProt Q15831).
T2 construct: purchased DiscoverX Co. (contract measurement) scanMAX Kinase assay panel
T2 sequence (Q15831 1-433): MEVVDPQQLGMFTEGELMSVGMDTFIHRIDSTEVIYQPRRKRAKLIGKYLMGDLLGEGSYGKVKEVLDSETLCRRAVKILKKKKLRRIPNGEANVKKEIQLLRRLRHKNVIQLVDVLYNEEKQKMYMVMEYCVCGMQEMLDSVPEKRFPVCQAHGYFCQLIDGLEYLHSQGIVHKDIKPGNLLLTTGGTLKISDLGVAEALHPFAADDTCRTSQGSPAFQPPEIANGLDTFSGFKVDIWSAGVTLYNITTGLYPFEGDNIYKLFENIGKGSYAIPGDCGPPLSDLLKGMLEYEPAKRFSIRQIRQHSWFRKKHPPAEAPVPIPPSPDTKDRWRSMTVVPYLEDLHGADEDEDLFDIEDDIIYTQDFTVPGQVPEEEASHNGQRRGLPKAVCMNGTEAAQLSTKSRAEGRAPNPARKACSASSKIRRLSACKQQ
Conditions: LKB1; 1 uM. The method in brief:
as §1

Assay [3] deals with T3, kinases of the scanMAX Kinase assay panel (Homo sapiens, UniProt P42681).
T3 construct: purchased DiscoverX Co. (contract measurement) scanMAX Kinase assay panel
T3 sequence (P42681 1-527): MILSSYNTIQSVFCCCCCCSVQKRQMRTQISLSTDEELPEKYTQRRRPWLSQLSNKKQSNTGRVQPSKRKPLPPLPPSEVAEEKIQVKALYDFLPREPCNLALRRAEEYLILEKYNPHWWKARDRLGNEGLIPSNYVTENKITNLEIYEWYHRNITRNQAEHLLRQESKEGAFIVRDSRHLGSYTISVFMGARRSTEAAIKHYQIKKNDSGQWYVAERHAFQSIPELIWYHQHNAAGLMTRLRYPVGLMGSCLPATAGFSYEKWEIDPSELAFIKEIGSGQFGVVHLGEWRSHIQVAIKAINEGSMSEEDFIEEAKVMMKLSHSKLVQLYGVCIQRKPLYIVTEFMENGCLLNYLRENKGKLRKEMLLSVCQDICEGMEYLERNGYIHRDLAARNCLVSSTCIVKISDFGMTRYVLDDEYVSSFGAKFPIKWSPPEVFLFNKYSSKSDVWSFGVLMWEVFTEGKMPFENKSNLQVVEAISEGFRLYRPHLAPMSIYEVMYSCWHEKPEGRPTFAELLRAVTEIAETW
The settings on record: kinase TXK; 1 uM in DMSO. An outline of the steps: as §1

Turning to `CNc1nc(Nc2ccc(C(=O)N3CCOCC3)cc2OC)nc2[nH]cc(C#N)c12` [Example 1, 2-((2-methoxy-4-(morpholine-4-carbonyl)phenyl)amino)-4-(methylamino)-7H-pyrrolo[2,3-d]pyrimidine-5-carbonitrile], the remaining binding at 1 µM is 58% in assay [1], 91% in assay [2] and 100% in assay [3].
Consider `CC1(Nc2nc(Nc3cnn([C@H]4CCN(C5COC5)C[C@@H]4F)c3Cl)nc3[nH]cc(C#N)c23)CC1` [Example 52, 2-((5-chloro-1-((3S,4S)-3-fluoro-1-(oxetane-3-yl)piperidine-4-yl)-1H-pyrazole-4-yl)amino)((1-methylcyclopropyl)amino)-7H-pyrrolo[2,3-d]pyrimidine-5-carbonitrile], for which the remaining binding at 1 µM was 0% in assay [1], 31% in assay [2] and 40% in assay [3].
`CCNc1nc(Nc2ccc(C(=O)N3CCC(N4CCOCC4)CC3)cc2OC)nc2[nH]cc(C(F)(F)F)c12` [Example 104, (4-((4-(ethylamino)-5-(trifluoromethyl)-7H-pyrrolo[2,3-d]pyrimidine-2-yl)amino)-3-methoxyphenyl)(4-morpholinopiperidine-1-yl)methanone]: the remaining binding at 1 µM in assay [1] stood at 0%; in assay [2], 87%; in assay [3] it was 100%.
